Columns and labels:
Format in all cases: functional, Homo sapiens
U2OS [1] = assay: (§1) Here: values are normalized to the negative (DMSO; defined as 0% autophagy induction) and positive (250nM Torin1; mTOR inhibitor; defined as maximal inducer of autophagy = 100%) control compounds and represented as % of autophagy induction. […] The impact of autophagy induction on cells is complex and depends on the affected target. As such, the magnitude of a phenotype may not be equally mirrored in the %-value of autophagy induction and vice versa. The dynamics of the induction may indicate the mode of activation: e.g. activation via phosphorylation or a signaling cascade may occur fast, while activation via transcription factors may take considerably longer. […] Of note, treatment concentrations may be sub-optimal for specific compounds, leading to false negative annotations.; settings: Culturing Media DMEM, 1 % Penicillin/Streptomycin, 10% Fetal bovin serum Add-On: No, Screening Media Control DMEM, Screening Media Samples DMEM
TERT-RPE1 = assay: as §1; settings: Culturing Media DMEM/F12 (1:1), 1 % Penicillin/Streptomycin, 10% Fetal bovin serum Add-On: No, Screening Media Control DMEM/F12 (1:1), Screening Media Samples DMEM/F12 (1:1)
U2OS [2] = assay: as §1; settings: Culturing Media DMEM, 1 % Penicillin/Streptomycin, 10% Fetal bovin serum Add-On: No, Screening Media Control DMEM, Screening Media Samples DMEM; remark: listed apart in the source
[3] = Compound Concentration 0.5 uM, Timepoint 12 hours
[4] = Compound Concentration 0.5 uM, Timepoint 24 hours
[5] = Compound Concentration 0.5 uM, Timepoint 36 hours
[6] = Compound Concentration 0.5 uM, Timepoint 60 hours
[7] = Compound Concentration 2 uM, Timepoint 12 hours
[8] = Compound Concentration 2 uM, Timepoint 24 hours
[9] = Compound Concentration 2 uM, Timepoint 36 hours
[10] = Compound Concentration 2 uM, Timepoint 60 hours
[11] = Compound Concentration 10 uM, Timepoint 12 hours
[12] = Compound Concentration 10 uM, Timepoint 24 hours
[13] = Compound Concentration 10 uM, Timepoint 36 hours
[14] = Compound Concentration 10 uM, Timepoint 60 hours

SMILES | autophagy induction (U2OS [1]; [3]) [%] | autophagy induction (U2OS [1]; [4]) [%] | autophagy induction (U2OS [1]; [5]) [%] | autophagy induction (U2OS [1]; [6]) [%] | autophagy induction (U2OS [1]; [7]) [%] | autophagy induction (U2OS [1]; [8]) [%] | autophagy induction (U2OS [1]; [9]) [%] | autophagy induction (U2OS [1]; [10]) [%] | autophagy induction (U2OS [1]; [11]) [%] | autophagy induction (U2OS [1]; [12]) [%] | autophagy induction (U2OS [1]; [13]) [%] | autophagy induction (U2OS [1]; [14]) [%] | autophagy induction (TERT-RPE1; [3]) [%] | autophagy induction (TERT-RPE1; [4]) [%] | autophagy induction (TERT-RPE1; [5]) [%] | autophagy induction (TERT-RPE1; [6]) [%] | autophagy induction (TERT-RPE1; [7]) [%] | autophagy induction (TERT-RPE1; [8]) [%] | autophagy induction (TERT-RPE1; [9]) [%] | autophagy induction (TERT-RPE1; [10]) [%] | other results
CC(C)NCC(O)c1ccc(N)c(C#N)c1 (configuration not stated) [CIMATEROL] | 3.679 | -3.232 | -4.651 | -4.997 | 6.803 | -0.3028 | -4.0163 | -10.3459 | 5.959 | -4.01 | -7.491 | -4.33 | 2.2717 | -0.618 | -7.669 | -22.0747 | 9.171 | 5.1156 | 0.3735 | -11.1579 | autophagy induction (TERT-RPE1; [11]): 13.5821%; autophagy induction (TERT-RPE1; [12]): 11.7661%; autophagy induction (TERT-RPE1; [13]): 4.317%; autophagy induction (TERT-RPE1; [14]): -0.2093%; autophagy induction (U2OS [2]; [3]): -8.937%; autophagy induction (U2OS [2]; [4]): -2.541%; autophagy induction (U2OS [2]; [5]): -0.28%; autophagy induction (U2OS [2]; [6]): 0.09617%; autophagy induction (U2OS [2]; [7]): -0.2215%; autophagy induction (U2OS [2]; [8]): -0.03889%; autophagy induction (U2OS [2]; [9]): 0.3661%; autophagy induction (U2OS [2]; [10]): 0.1358%; autophagy induction (U2OS [2]; [11]): 14.0499%; autophagy induction (U2OS [2]; [12]): 5.045%; autophagy induction (U2OS [2]; [13]): 2.283%; autophagy induction (U2OS [2]; [14]): 0.5754%
C/C(=N\NC(=O)[C@@H]1C(=O)NC[C@H]1c1ccccc1)c1cccc(Br)c1 | 9.666 | 0.07709 | 4.021 | -3.426 | -4.579 | -6.454 | -2.749 | -11.0743 | -8.587 | 1.184 | -3.458 | -5.559 | 3.657 | -1.179 | -5.656 | -7.294 | -6.467 | -9.581 | -11.1295 | -14.064 | autophagy induction (TERT-RPE1; [11]): -5.576%; autophagy induction (TERT-RPE1; [12]): -6.043%; autophagy induction (TERT-RPE1; [13]): -7.363%; autophagy induction (TERT-RPE1; [14]): -9.435%; autophagy induction (U2OS [2]; [3]): -3.442%; autophagy induction (U2OS [2]; [4]): 0.5164%; autophagy induction (U2OS [2]; [5]): 1.385%; autophagy induction (U2OS [2]; [6]): -0.9425%; autophagy induction (U2OS [2]; [7]): -6.368%; autophagy induction (U2OS [2]; [8]): -5.034%; autophagy induction (U2OS [2]; [9]): -3.37%; autophagy induction (U2OS [2]; [10]): -2.754%; autophagy induction (U2OS [2]; [11]): -1.379%; autophagy induction (U2OS [2]; [12]): -1.755%; autophagy induction (U2OS [2]; [13]): -0.957%; autophagy induction (U2OS [2]; [14]): -1.418%

Source: ChEMBL document CHEMBL5724696, “Autophagy assay results for EUbOPEN Chemogenomics Library” (2024)
